ChEMBL document CHEMBL3228022, “Synthesis of 2,3,4,4a,5,9b-hexahydro-1H-pyrido[4,3-b]indole derivatives and their central nervous system activities” (1979)
Calls of active or inactive are those of the source. The calls are words filed in the database; no cut-off is given here.

What was measured:
Mus musculus [1] = assay: Neuroleptic activity in po dosed STD-ddy mouse assessed as catalepsy measured up to 30 secs; type: functional
Mus musculus [2] = assay: Neuroleptic activity in STD-ddy mouse assessed as inhibition of locomotion at 100 mg/kg, po measured for 3 mins; type: functional; conditions: 0.05 h
Mus musculus [3] = assay: Neuroleptic activity in po dosed STD-ddy mouse assessed as inhibition of locomotion measured for 3 mins; type: functional; conditions: 0.05 h
Mus musculus [4] = assay: Neuroleptic activity in po dosed STD-ddy mouse assessed as inhibition of active avoidance; type: functional
Rattus norvegicus [5] = assay: Neuroleptic activity in po dosed Wistar HLA rat assessed as inhibition of intracranial self-stimulation measured for 1 to 24 hrs; type: functional
Mus musculus [6] = assay: Neuroleptic activity in STD-ddy mouse assessed as muscle relaxation at 100 mg/kg, po after 20 mins; type: functional, organism-based; parameters: dose 100 mg/kg
Mus musculus [7] = assay: Neuroleptic activity in STD-ddy mouse assessed as catalepsy at 100 mg/kg, po measured up to 30 secs; type: functional, organism-based; parameters: dose 100 mg/kg
Rattus norvegicus [8] = assay: Neuroleptic activity in Wistar HLA rat assessed as inhibition of methamphetamine-induced stereotyped behavior at 1 mg/kg, ip administered 20 mins before methamphetamine challenge measured every 30 mins for 3 hrs followed by every 1 hr for further 3 hrs; type: functional; parameters: Activity: scale not given: the % may be the effect or the level left; conditions: route intraperitoneal
Rattus norvegicus [9] = assay: Neuroleptic activity in Wistar HLA rat assessed as inhibition of methamphetamine-induced stereotyped behavior at 10 mg/kg, ip administered 20 mins before methamphetamine challenge measured every 30 mins for 3 hrs followed by every 1 hr for further 3 hrs; type: functional; parameters: Activity: scale not given: the % may be the effect or the level left; conditions: route intraperitoneal; for inhibition in vivo at 10 mg/kg: Rattus norvegicus, Wistar HLA, ip
Rattus norvegicus [10] = assay: Neuroleptic activity in Wistar HLA rat assessed as inhibition of methamphetamine-induced stereotyped behavior at 2 mg/kg, ip administered 20 mins before methamphetamine challenge measured every 30 mins for 3 hrs followed by every 1 hr for further 3 hrs; type: functional; parameters: Activity: scale not given: the % may be the effect or the level left; conditions: route intraperitoneal
Rattus norvegicus [11] = assay: Neuroleptic activity in Wistar HLA rat assessed as inhibition of methamphetamine-induced stereotyped behavior at 5 mg/kg, ip administered 20 mins before methamphetamine challenge measured every 30 mins for 3 hrs followed by every 1 hr for further 3 hrs; type: functional; parameters: Activity: scale not given: the % may be the effect or the level left; conditions: route intraperitoneal; for inhibition in vivo at 5 mg/kg: Rattus norvegicus, Wistar HLA, ip
Rattus norvegicus [12] = assay: Neuroleptic activity in Wistar HLA rat assessed as stimulation of methamphetamine-induced stereotyped behavior at 10 mg/kg, ip administered 20 mins before methamphetamine challenge measured every 30 mins for 3 hrs followed by every 1 hr for further 3 hrs; type: functional; conditions: route intraperitoneal
Rattus norvegicus [13] = assay: Neuroleptic activity in Wistar HLA rat assessed as stimulation of methamphetamine-induced stereotyped behavior at 5 mg/kg, ip administered 20 mins before methamphetamine challenge measured every 30 mins for 3 hrs followed by every 1 hr for further 3 hrs; type: functional; conditions: route intraperitoneal
Mus musculus [14] = assay: Neuroleptic activity in STD-ddy mouse assessed as inhibition of locomotion at 10 mg/kg, po measured for 3 mins; type: functional; conditions: 0.05 h
Rattus norvegicus [15] = assay: Neuroleptic activity in Wistar HLA rat assessed as stimulation of methamphetamine-induced stereotyped behavior at 2 mg/kg, ip administered 20 mins before methamphetamine challenge measured every 30 mins for 3 hrs followed by every 1 hr for further 3 hrs; type: functional; conditions: route intraperitoneal

Structure (SMILES)	inhibition in vivo at 100 mg/kg (Mus musculus [2]) [%]	Activity (Mus musculus [6])	Activity (Mus musculus [7])	Activity (Rattus norvegicus [8]) [%]	also measured
CN1c2ccc(F)cc2[C@H]2CN(CCCC(=O)c3ccc(F)cc3)CC[C@@H]21.O=C(O)/C=C\C(=O)O (relative stereo)	92.7				ED50 (Mus musculus [1]): 30.7 mg/kg; ED50 (Mus musculus [3]): 12.8 mg/kg; ED50 (Mus musculus [4]): 4.58 mg/kg; ED50 (Rattus norvegicus [5]): 7.37 mg/kg
Cc1ccc2c(c1)[C@H]1CN(CCCN(C)C)CC[C@H]1N2 (relative stereo)	12.3	inactive	inactive		
Cc1ccc2c(c1)[C@H]1CN(CCCC(=O)c3ccc(F)cc3)CC[C@@H]1N2.Cl (relative stereo)	86.5			25	ED50 (Mus musculus [1]): 7.18 mg/kg; ED50 (Mus musculus [3]): 9.73 mg/kg; ED50 (Mus musculus [4]): 9.73 mg/kg; inhibition in vivo at 10 mg/kg (Rattus norvegicus [9]): > 75%; inhibition in vivo at 2 mg/kg (Rattus norvegicus [10]; Rattus norvegicus, Wistar HLA, ip): 50%; inhibition in vivo at 5 mg/kg (Rattus norvegicus [11]): > 75%; ED50 (Rattus norvegicus [5]): 6.28 mg/kg
Cc1ccc2c(c1)[C@H]1CN(Cc3ccccc3)CC[C@@H]1N2 (relative stereo)	17.9	inactive			
Cc1ccc2c(c1)[C@H]1CN(CCO)CC[C@H]1N2 (relative stereo)	30.7	inactive	inactive		
CCN1c2ccc(C)cc2[C@H]2CN(CCCC(=O)c3ccc(F)cc3)CC[C@H]21.Cl (relative stereo)	92.9	Active	Active	0	Activity (Rattus norvegicus [12]): >75%; Activity (Rattus norvegicus [13]): >75%; inhibition in vivo at 10 mg/kg (Mus musculus [14]): 34%; Activity (Rattus norvegicus [10]): 0%
Cc1ccc2c(c1)[C@H]1CN(CCCC(=O)c3ccc(F)cc3)CC[C@H]1N2C.Cl (relative stereo)	95.8		Active	0	Activity (Rattus norvegicus [12]): 50%; ED50 (Mus musculus [1]): 40.3 mg/kg; Activity (Rattus norvegicus [13]): 50%; inhibition in vivo at 10 mg/kg (Mus musculus [14]): 55.8%; ED50 (Mus musculus [3]): 10.2 mg/kg; ED50 (Mus musculus [4]): 20.1 mg/kg; Activity (Rattus norvegicus [10]): 0%; ED50 (Rattus norvegicus [5]): 30 mg/kg
Fc1ccc2c(c1)[C@H]1CN(Cc3ccccc3)CC[C@@H]1N2 (relative stereo)	76.1	inactive	inactive		
Cl.O=C(CCCN1CC[C@@H]2Nc3ccc(F)cc3[C@H]2C1)c1ccc(F)cc1 (relative stereo)	92.2				ED50 (Mus musculus [1]): 8.08 mg/kg; ED50 (Mus musculus [3]): 7.12 mg/kg; ED50 (Mus musculus [4]): 5.19 mg/kg; ED50 (Rattus norvegicus [5]): 4.54 mg/kg
Cc1ccc2c(c1)[C@H]1CN(CCCN3c4ccccc4Sc4cc(Cl)ccc43)CC[C@H]1N2.Cl (relative stereo)	96.9	inactive		0	inhibition in vivo at 10 mg/kg (Mus musculus [14]): 56.6%; Activity (Rattus norvegicus [9]): 0%; Activity (Rattus norvegicus [10]): 0%; Activity (Rattus norvegicus [11]): 0%
Cc1ccc2c(c1)[C@H]1CN(CCCC(=O)c3ccc(F)cc3)CC[C@@H]1N2C.O=C(O)/C=C\C(=O)O (relative stereo)	97.4		Active		ED50 (Mus musculus [1]): 55.9 mg/kg; ED50 (Mus musculus [3]): 14.5 mg/kg; ED50 (Mus musculus [4]): 11.5 mg/kg; ED50 (Rattus norvegicus [5]): 8.44 mg/kg
Cc1ccc2c(c1)[C@H]1CN(CCCC(c3ccc(F)cc3)c3ccc(F)cc3)CC[C@H]1N2 (relative stereo)	90.7	inactive			inhibition in vivo at 10 mg/kg (Mus musculus [14]): -73%
CCN1CC[C@H]2Nc3ccc(C)cc3[C@H]2C1 (mixture of isomers)	54.7		inactive		
Cl.O=C(CCCN1CC[C@H]2Nc3ccc(F)cc3[C@H]2C1)c1ccc(F)cc1 (relative stereo)	91.2			0	inhibition in vivo at 10 mg/kg (Mus musculus [14]): 47.2%; inhibition in vivo at 10 mg/kg (Rattus norvegicus [9]): 50%; Activity (Rattus norvegicus [10]): 0%; inhibition in vivo at 5 mg/kg (Rattus norvegicus [11]): 25%
Cc1ccc2c(c1)[C@H]1CN(CCO)CC[C@@H]1N2 (relative stereo)	-5.6	inactive	inactive		
Cc1ccc2[nH]c3c(c2c1)CN(CCCC(=O)c1ccc(F)cc1)CC3.Cl				0	Activity (Rattus norvegicus [9]): 0%; Activity (Rattus norvegicus [10]): 0%; Activity (Rattus norvegicus [11]): 0%
CCc1ccc2c(c1)[C@H]1CN(CCCC(=O)c3ccc(F)cc3)CC[C@H]1N2.Cl (relative stereo)	44	inactive	inactive		Activity (Rattus norvegicus [15]): 25%; Activity (Rattus norvegicus [12]): >75%; Activity (Rattus norvegicus [13]): >75%
Cl.O=C(CCCN1CC[C@H]2Nc3ccccc3[C@H]2C1)c1ccc(F)cc1 (relative stereo)	77.7			0	inhibition in vivo at 10 mg/kg (Mus musculus [14]): -6%; inhibition in vivo at 10 mg/kg (Rattus norvegicus [9]): 25%; Activity (Rattus norvegicus [10]): 0%; Activity (Rattus norvegicus [11]): 0%
CC(=O)N1c2ccc(C)cc2[C@H]2CN(CCCC(=O)c3ccc(F)cc3)CC[C@H]21 (relative stereo)	21.7	inactive	inactive		
CC(=O)CCN1CC[C@H]2Nc3ccc(C)cc3[C@H]2C1 (relative stereo)	38.8	inactive	inactive		
Cc1ccc2c(c1)[C@H]1CN(CC(=O)c3ccccc3)CC[C@H]1N2 (relative stereo)	29.8	inactive	inactive		
Cc1ccc2c(c1)[C@H]1CN(C)CC[C@@H]1N2 (relative stereo)	79.7	inactive	inactive		
COc1ccc2c(c1)[C@H]1CN(CCCC(=O)c3ccc(F)cc3)CC[C@H]1N2.Cl (relative stereo)	96.7	Active		0	inhibition in vivo at 10 mg/kg (Mus musculus [14]): 61.7%; inhibition in vivo at 10 mg/kg (Rattus norvegicus [9]): 25%; Activity (Rattus norvegicus [10]): 0%; Activity (Rattus norvegicus [11]): 0%
Cc1ccc2c(c1)[C@H]1CN(Cc3ccccc3)CC[C@H]1N2 (relative stereo)	35.3	inactive	inactive		
CC(=O)CCN1CC[C@@H]2Nc3ccc(C)cc3[C@H]2C1 (relative stereo)	-15.5	inactive			
